Results on 26 compounds are retold here after patent US6465482B2, “Arylpiperazinyl-cyclohexyl indole derivatives for the treatment of depression” (Wyeth, priority 1999, dated 2002).

pKi: −log10 of the molar value.

Data set [1] has as its target T1, human 5-HT1A receptor subtype (Homo sapiens, UniProt P08908).
T1 construct: expressed in transfected cells
T1 sequence (P08908 1-422): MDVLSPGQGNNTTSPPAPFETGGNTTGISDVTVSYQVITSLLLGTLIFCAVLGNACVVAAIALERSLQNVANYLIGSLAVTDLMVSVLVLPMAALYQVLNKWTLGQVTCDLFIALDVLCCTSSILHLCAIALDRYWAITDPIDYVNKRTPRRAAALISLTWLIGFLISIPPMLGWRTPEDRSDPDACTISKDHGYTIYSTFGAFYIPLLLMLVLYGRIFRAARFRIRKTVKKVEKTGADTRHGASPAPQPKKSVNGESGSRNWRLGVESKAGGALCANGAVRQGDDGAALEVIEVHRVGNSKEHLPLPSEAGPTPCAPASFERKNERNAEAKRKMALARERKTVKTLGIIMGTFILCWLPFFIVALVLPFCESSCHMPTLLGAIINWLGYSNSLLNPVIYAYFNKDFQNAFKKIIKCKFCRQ
Briefly: 5-HT1A receptor binding, [3H]8-OH-DPAT, CHO cell membranes. The settings on record: for 5-HT1A, value given as %: concentration not given; for pKi: [3H]8-OH-DPAT 1.5 nM. As to the method:
The PCR cloning of the human 5-HT1A receptor subtype from a human genomic library has been described previously Chanda et al., Mol. Pharmacol., 43:516 (1993). A stable Chinese hamster ovary cell line expressing the human 5-HT1A receptor subtype (5-HT1A.CH2O cells) was employed throughout this study. Cells were maintained in DMEM supplemented with 10% fetal calf serum, non-essential amino acids and penicillin/streptomycin.
Cells were grown to 95-100% confluency as a monolayer before membranes were harvested for binding studies. Cells were gently scraped from the culture plates, transferred to centrifuge tubes, and washed twice by centrifugation (2000 rpm for 10 min., 4° C.) in buffer (50 mM Tris; pH 7.5). The resulting pellets were aliquoted and placed at −80° C. On the day of assay, the cells were thawed on ice, and resuspended in buffer. Studies were conducted using [^3H]8-OH-DPAT as the radioligand. The binding assay was performed in 96 well microtiter plates in a final total volume of 250 μL of buffer. Competition experiments were performed by using 7 concentrations of unlabelled drug and a final ligand concentration of 1.5 nM. Non-specific binding was determined in the presence of 10 μM 5HT. Saturation analysis was conducted by using [^3H]8-OH-DPAT at concentaritions ranging from 0.3-30 nm Following a 30 minute incubation at room temperature, the reaction was terminated by the addition of ice cold buffer and rapid filtration using a M-96 Brandel Cell Harvester (Gaithersburg, Md.) through a GF/B filter presoaked for 30 minutes in 0.5% polyethylenenimine.

The target of another data set is T2, serotonin transporter (Rattus norvegicus, UniProt P31652).
T2 construct: frontal cortical membranes prepared from male Sprague-Dawley rats; from tissue; host or cells: rat frontal cortex membranes
T2 sequence (P31652 whole entry): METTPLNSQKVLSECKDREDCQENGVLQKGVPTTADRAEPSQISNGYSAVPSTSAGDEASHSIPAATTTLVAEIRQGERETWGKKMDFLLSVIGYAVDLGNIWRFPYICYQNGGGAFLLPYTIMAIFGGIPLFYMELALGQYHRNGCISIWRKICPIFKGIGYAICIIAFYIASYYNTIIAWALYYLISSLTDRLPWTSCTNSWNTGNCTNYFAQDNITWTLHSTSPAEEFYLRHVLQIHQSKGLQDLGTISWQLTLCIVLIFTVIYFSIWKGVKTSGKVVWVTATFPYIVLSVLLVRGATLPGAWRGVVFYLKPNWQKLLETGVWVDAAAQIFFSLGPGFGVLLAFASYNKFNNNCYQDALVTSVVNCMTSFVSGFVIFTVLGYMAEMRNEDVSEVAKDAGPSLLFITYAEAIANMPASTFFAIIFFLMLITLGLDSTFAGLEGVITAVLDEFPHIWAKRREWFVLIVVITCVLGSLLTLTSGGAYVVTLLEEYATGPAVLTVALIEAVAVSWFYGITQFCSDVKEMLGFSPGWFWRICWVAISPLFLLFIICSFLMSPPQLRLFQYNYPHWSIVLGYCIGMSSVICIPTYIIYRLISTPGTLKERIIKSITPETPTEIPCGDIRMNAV
Briefly: serotonin transporter affinity, 3H-paroxetine binding, frontal cortical membranes. The conditions noted are these: for Ki: 3H-paroxetine 0.1 nM, read-out: ST (Ki, nM,). As to the method: A protocol similar to that used by Cheetham et al., Neuropharmacol. […] Briefly, frontal cortical membranes prepared from male Sprague-Dawley rats were incubated with ^3H-paroxetine (0.1 nM) for 60 minutes at 25° C. […] All reactions are terminated by the addition of ice cold Tris buffer followed by rapid filtration using a Tom Tech filtration device to separate bound from free ^3H-paroxetine.

The pKi is −log10 of the Ki, conventionally taken in molar units. One may read the Ki as the equilibrium dissociation constant of an inhibitor or competing ligand from its target. In general, melting point refers to the temperature, or range, at which the solid turns liquid.

On to `Brc1ccc2[nH]cc([C@H]3CC[C@@H](N4CCN(c5cccc6[nH]ccc56)CC4)CC3)c2c1` [Example 5a, 5-Bromo-3-[cis-4-[4-(1H-indol-4-yl)-1-piperazinyl]cyclohexyl]-1H-indole], for which the “5-HT1A, value given as %” value in data set [1] was found to be 0%.

On to `Brc1ccc2[nH]cc([C@H]3CC[C@H](N4CCN(c5cccc6[nH]ccc56)CC4)CC3)c2c1` [Example 5b, 5-Bromo-3-[trans-4-[4-(1H-indol-4-yl)-1-piperazinyl]cyclohexyl]-1H-indole], for which, in data set [1], the “5-HT1A, value given as %” value is 78.7%.

In the case of `Cn1ccc2c(N3CCN([C@H]4CC[C@@H](c5cn(C)c6cc(F)ccc65)CC4)CC3)cccc21` [Example 11, 6-Fluoro-1-methyl-3-{cis-4-[4-(1-methyl-1H-indol-4-yl)-1-piperazinyl]cyclohexyl}-1H-indole], the “5-HT1A, value given as %” value in data set [1] amounted to 0%.

Consider `CCn1cc([C@H]2CC[C@@H](N3CCN(c4cccc5[nH]ccc45)CC3)CC2)c2cc(C#N)ccc21` [Example 13a, 1-Ethyl-3-{(1,4-cis)-4-[4-(1H-indol-4-yl)-piperazin-1-yl]-cyclohexyl}-1H-indole-5-carbonitrile], for which the pKi in data set [1] was 6.25.

In data set [1], `CCn1cc([C@H]2CC[C@H](N3CCN(c4cccc5[nH]ccc45)CC3)CC2)c2cc(C#N)ccc21` [Example 13b, 1-Ethyl-3-{(1,4-trans)-4-[4-(1H-indol-4-yl)-piperazin-1-yl]-cyclohexyl}-1H-indole-5-carbonitrile] showed a pKi of 6.08.

As for `CCCn1cc([C@H]2CC[C@@H](N3CCN(c4cccc5[nH]ccc45)CC3)CC2)c2cc(C#N)ccc21` [Example 14a, 3-{(1,4-cis)-4-[4-(1H-Indol-4-yl)-piperazin-1-yl]-cyclohexyl}-1-propyl-1H-indole-5-carbonitrile], the negative-log Ki (pKi) in data set [1] is 6.09.

Regarding `CCCn1cc([C@H]2CC[C@H](N3CCN(c4cccc5[nH]ccc45)CC3)CC2)c2cc(C#N)ccc21` [Example 14b, 3-{(1,4-trans)-4-[4-(1H-indol-4-yl)-piperazin-1-yl]-cyclohexyl}-1-propyl-1H-indole-5-carbonitrile], the “5-HT1A, value given as %” value in data set [1] turned out to be 0%.

Consider `CC(C)n1cc([C@H]2CC[C@@H](N3CCN(c4cccc5[nH]ccc45)CC3)CC2)c2cc(C#N)ccc21` [Example 15a, 3-{(1,4-cis)-4-[4-(1H-indol-4-yl)-piperazin-1-yl]-cyclohexyl}-1-isopropyl-1H-indole-5-carbonitrile], for which the Ki at serotonin transporter was found to be 28 nM.

Regarding `CC(C)n1cc([C@H]2CC[C@H](N3CCN(c4cccc5[nH]ccc45)CC3)CC2)c2cc(C#N)ccc21` [Example 15b, 3-{(1,4-trans)-4-[4-(1H-indol-4-yl)-piperazin-1-yl]-cyclohexyl}-1-isopropyl-1H-indole-5-carbonitrile], on serotonin transporter (concentration not given), the “ST, value given as %” value is reported as 16%.

Turning to `N#Cc1ccc2c(c1)c([C@H]1CC[C@@H](N3CCN(c4cccc5[nH]ccc45)CC3)CC1)cn2Cc1ccccc1` [Example 16a, 1-Benzyl-3-{(1,4-cis)-4-[4-(1H-indol-4-yl)-piperazin-1-yl]-cyclohexyl}-1H-indole-5-carbonitrile], in data set [1], the “5-HT1A, value given as %” value turned out to be 0%. In addition, the Ki on serotonin transporter was determined as 29 nM.

As for `N#Cc1ccc2c(c1)c([C@H]1CC[C@H](N3CCN(c4cccc5[nH]ccc45)CC3)CC1)cn2Cc1ccccc1` [Example 16b, 1-Benzyl-3-{(1,4-trans)-4-[4-(1H-indol-4-yl)-piperazin-1-yl]-cyclohexyl}-1H-indole-5-carbonitrile], the “5-HT1A, % @ 100 nM” value in data set [1] (100 nM) stood at 0% @. Besides, the “ST, % 100 nM” value on serotonin transporter (100 nM) amounted to 25%.

Regarding `Cn1ccc2c(N3CCN([C@H]4CC[C@@H](c5cn(C)c6ccc(C#N)cc65)CC4)CC3)cccc21` [Example 17, 1-Methyl-3-{(1,4-cis)-4-[4-(1-methyl-1H-indol-4-yl)-piperazin-1-yl]-cyclohexyl}-1H-indole-5-carbonitrile], the “5-HT1A, value given as %” value in data set [1] turned out to be 0%. For the same compound, on serotonin transporter, the inhibition constant (Ki) amounted to 2.5 nM.

The compound `COc1ccccc1C1CCN([C@H]2CC[C@@H](c3c[nH]c4ccc(F)cc43)CC2)CC1` [Example 19a, 5-Fluoro-3-{(1,4-cis)-4-[4-(2-methoxy-phenyl)-piperidin-1-yl]-cyclohexyl}-1H-indole] showed a pKi in data set [1] of 6.58. Besides, the Ki at serotonin transporter came out at 5.72 nM.

Compound `COc1ccc2[nH]cc([C@H]3CC[C@@H](N4CCN(c5ccccc5OC)CC4)CC3)c2c1` [Example 20a, 5-Methoxy-3-{(1,4-cis)-4-[4-(2-methoxy-phenyl)-piperazin-1-yl]-cyclohexyl}-1H-indole] had a pKi in data set [1] of 6.20.

With `COc1ccccc1N1CCN([C@H]2CC[C@@H](c3c[nH]c4ncccc43)CC2)CC1` [Example 21, 3-{(1,4-cis)-4-[4-(2-Methoxy-phenyl)-piperazin-1-yl]-cyclohexyl}-1H-pyrrolo[2,3-b]pyridine], the pKi in data set [1] was 6.96.

In the case of `Fc1cccc2[nH]cc([C@H]3CC[C@@H](N4CCN(c5cccc6c5OCCO6)CC4)CC3)c12` [Example 23a, 3-{(1,4-cis)-4-[4-(2,3-Dihydro-benzo[1,4]dioxin-5-yl)-piperazin-1-yl]-cyclohexyl}-4-fluoro-1H-indole], in data set [1], the pKi was 6.99.

As to `Fc1cccc2[nH]cc([C@H]3CC[C@H](N4CCN(c5cccc6c5OCCO6)CC4)CC3)c12` [Example 23b, 3-{(1,4-trans)-4-[4-(2,3-Dihydro-benzo[1,4]dioxin-5-yl)-piperazin-1-yl]-cyclohexyl}-4-fluoro-1H-indole], the pKi in data set [1] was 7.83.

On to `Fc1ccc2[nH]cc([C@H]3CC[C@@H](N4CCN(c5cccc6cccnc56)CC4)CC3)c2c1` [Example 27a, 8-{4-[(1,4-cis)-4-(5-Fluoro-1H-indol-3-yl)-cyclohexyl]-piperazin-1-yl}-quinoline], for which the negative logarithm of the Ki (pKi) in data set [1] is 7.16.

`Fc1ccc2[nH]cc([C@H]3CC[C@H](N4CCN(c5cccc6cccnc56)CC4)CC3)c2c1` [Example 27b, 8-{4-[(1,4-trans)-4-(5-Fluoro-1H-indol-3-yl)-cyclohexyl]-piperazin-1-yl}-quinoline] gave a negative-log Ki (pKi) in data set [1] of 8.18.

For the compound `Fc1cc2c(c(N3CCN([C@H]4CC[C@H](c5c[nH]c6ccc(F)cc65)CC4)CC3)c1)OCCC2` [Example 31b, 5-Fluoro-3-{(1,4-trans)-4-[4-(6-fluoro-chroman-8-yl)-piperazin-1-yl]-cyclohexyl}-1H-indole], the pKi in data set [1] was 7.49.

`Fc1cc2c(c(N3CCN([C@H]4CC[C@H](c5c[nH]c6ccc(F)cc65)CC4)CC3)c1)OCC2` [Example 32b, 5-Fluoro-3-{(1,4-trans)-4-[4-(5-fluoro-2,3-dihydro-benzofuran-7-yl)-piperazin-1-yl]-cyclohexyl}-1H-indole] gave a pKi in data set [1] of 7.31.

`COc1cc(N2CCN([C@H]3CC[C@@H](c4cn(C)c5ncccc54)CC3)CC2)c2ncccc2c1` [Example 79, 6-Methoxy-8-{cis-4-[4-(1-methyl-1H-pyrrolo[2,3-b]pyridin-3-yl)cyclohexyl]-1-piperazinyl}quinoline]: the melting point was 105 to 110 °C.

In turn, `COc1cc(N2CCN([C@H]3CC[C@@H](c4c[nH]c5cc(F)ccc54)CC3)CC2)c2ncccc2c1` [Example 80, 8-{cis-4-[4-(6-Fluoro-1H-indol-3-yl)cyclohexyl]-1-piperazinyl}-6-methoxyquinoline] came in with a melting point of 239 to 243 °C.

`COc1cc(N2CCN([C@H]3CC[C@@H](c4cn(C)c5cc(F)ccc54)CC3)CC2)c2ncccc2c1` [Example 81, 8-{cis-4-[4-(6-Fluoro-1-methyl-1H-indol-3-yl)cyclohexyl]-1-piperazinyl}-6-methoxyquinoline] came in with a melting point of 219 to 223 °C.

`COc1cc(N2CCN([C@H]3CC[C@@H](c4c[nH]c5ccc(C(F)(F)F)cc54)CC3)CC2)c2ncccc2c1` [Example 82, 6-Methoxy-8-(4-{(cis)-4-[5-(trifluoromethyl)-1H-indol-3-yl]cyclohexyl}-1-piperazinyl)quinoline]: the melting point lay in the range of 143 to 147 °C.

For the compound `COc1cc(N2CCN(C3CCC(c4c[nH]c5cc(C#N)ccc45)CC3)CC2)c2ncccc2c1` (stereo not drawn) [Example 85, 3-{4-[4-(6-Methoxy-8-quinolinyl)-1-piperazinyl]cyclohexyl}-1H-indole-6-carbonitrile], the melting point was 242 to 244 °C.
